{"source": "patent US12128084B2", "about": "“Use of PAYCS in regulation of intestinal flora, metabolites, and brain neurotransmitters” (Sericulture and Agri-Food Research Institute, Guangdong …, priority 2022, dated 2024)", "format_in_all_cases": "in vivo", "key": {"brain neurotransmitters": {"tested_on": "brain neurotransmitters", "experiment": "brain neurotransmitters of amnesic mice"}, "fecal metabolites": {"tested_on": "fecal metabolites", "experiment": "fecal metabolites of amnesic mice", "excerpt": "The scores of variable importance in projection (VIP) for symbol ** and symbol *** are P<0.05, P<0.01, and P<0.001 respectively."}, "[1]": {"tested_on": "MDA, LDH, SOD, GP(x) in liver and serum", "experiment": "liver and serum oxidation indexes of amnesic mice"}, "[2]": {"tested_on": "mice with amnesia induced by scopolamine", "experiment": "behavioral test (jumping test, swimming test; training part and test part) in scopolamine-induced amnesic mice", "description": "The mice were tested for a jumping test (FIG. 1A), swimming speed (FIG. 1), swimming distance (FIG. 1C), the number of crossings on the target platform (FIG. 1D), the number of crossings on the target quadrants (FIG. 1E), the escape latency and the error times (FIG. 1F) during the training. In the test part, the swimming distance, the swimming speed, number of crossings on target quadrant (FIG. 1G), the number of crossings on the target platform, and escape latency (H) were determined. In these figures, #: compared with the control group, P<0.05; compared with the control group, P<0.01; *: compared model group, P<0.05; **: compared with the model group, P<0.01.\nFIG. 7 is an experiment designed to evaluate the effect of PAYCS-L (lower dose of SEQ ID NO: 1) and PAYCS-H (higher dose of SEQ ID NO: 1) on learning and memory function in mice with amnesia induced by scopolamine."}, "intestinal microflora": {"tested_on": "intestinal microflora", "experiment": "16S rRNA analysis of intestinal microflora of amnesic mice", "excerpt": "The symbols * and ** represent P<0.05 and P<0.01, respectively."}, "[3]": {"tested_on": "IL-1β and TNF-α in liver and serum", "experiment": "liver and serum inflammatory indexes of amnesic mice"}, "[4]": {"details": "scopolamine-induced amnesic mice"}, "[5]": {"details": "PAYCS-H (higher dose), scopolamine-induced amnesic mice"}}}
{"substance": "Pro-Ala-Tyr-Cys-Ser (PAYCS; sequence of the peptide ProAlaTyrCysSer)", "values": [{"measurement": "neurotransmitters", "setting": "brain neurotransmitters; e.g. Ach, GABA, Glu, HisA, Kyn", "value": "significantly up-regulated"}, {"measurement": "brain neurotransmitters in amnesic mice", "setting": "brain neurotransmitters; mouse, in vivo", "value": "regulatory effect"}, {"measurement": "tryptophan metabolism-related neurotransmitters in the brain", "setting": "brain neurotransmitters; mouse, in vivo", "value": "improves"}, {"measurement": "fecal metabolites", "setting": "fecal metabolites; PAYCS-H (higher dose)", "value": "re-modulates"}, {"measurement": "memory-related metabolites", "setting": "fecal metabolites; e.g. Panax notoginseng saponins and cholinergic acid", "value": "significantly up-regulated"}, {"measurement": "memory-related metabolites", "setting": "fecal metabolites; e.g. blumealactone C, thalictroidine, notoginsenoside M, 3a,7a,12b-trihydroxy-5b-cholanoic acid, sequiterpene lactone 326, helenalin, cholic acid", "value": "significantly up-regulated"}, {"measurement": "fecal metabolites in amnesic mice", "setting": "fecal metabolites; mouse, in vivo", "value": "regulatory effect"}, {"measurement": "antioxidant effect", "setting": "[1]; PAYCS-H (higher dose)", "value": "good"}, {"measurement": "oxidative stress in the liver and serum", "setting": "[1]; PAYCS-H (higher dose)", "value": "reverses"}, {"measurement": "liver and serum deficits", "setting": "[1]; mouse, in vivo", "value": "positive effect"}, {"measurement": "LDH level in serum", "setting": "[1]; [4]", "value": "significantly reduce"}, {"measurement": "MDA level in serum", "setting": "[1]; [4]", "value": "significantly reduce"}, {"measurement": "SOD content in the liver", "setting": "[1]; [4]", "value": "significantly increase"}, {"measurement": "cognitive function in the test part of the behavioral test", "setting": "[2]; PAYCS-H (0.4 g/kg bw, higher dose), 3 weeks of treatment, scopolamine-induced mouse model", "value": "better improvement"}, {"measurement": "memory enhancement in the training part of the behavioral test", "setting": "[2]; PAYCS-L (0.2 g/kg bw, lower dose), 3 weeks of treatment, scopolamine-induced mouse model", "value": "better effect of memory enhancement"}, {"measurement": "memory deficits in amnesic mice", "setting": "[2]; PAYCS-L (lower dose)", "value": "partially reverses"}, {"measurement": "scopolamine-induced memory impairment in mice", "setting": "[2]; mouse, in vivo", "value": "remedies"}, {"measurement": "relative abundance of Cacteroidaceae", "setting": "intestinal microflora; 16S rRNA analysis", "value": "increased"}, {"measurement": "relative abundance of Prevotellaceae", "setting": "intestinal microflora; 16S rRNA analysis", "value": "increased"}, {"measurement": "intestinal microorganisms", "setting": "intestinal microflora; PAYCS-H (higher dose)", "value": "re-modulates"}, {"measurement": "abundance of intestinal microorganism population in amnesic mice", "setting": "intestinal microflora; PAYCS-L (lower dose)", "value": "reconstitutes"}, {"measurement": "ratio of Bacteroidetes/Firmicutes", "setting": "intestinal microflora; PAYCS-L (lower dose), 16S rRNA analysis", "value": "changed"}, {"measurement": "anti-inflammatory effect", "setting": "[3]; PAYCS-H (higher dose)", "value": "good"}, {"measurement": "inflammatory stress in the liver and serum", "setting": "[3]; PAYCS-H (higher dose)", "value": "reverses"}, {"measurement": "IL-1β in the liver", "setting": "[3]; [5]", "value": "inhibit the increase"}, {"measurement": "TNF-α in the liver", "setting": "[3]; [5]", "value": "inhibit the increase"}, {"measurement": "content of TNF-α in the liver", "setting": "[3]; PAYCS-L (lower dose), scopolamine-induced amnesic mice, only TNF-α", "value": "reduces"}]}
